US10011571B2, “Preparation method for aromatic heterocyclic compound used as selective JAK3 and/or JAK1 kinase inhibitor and application of aromatic heterocyclic compound” (SHENZHEN CHIPSCREEN BIOSCIENCES, LTD., priority 2014, dated 2018)

How the values were obtained:
BLK = BLK (Homo sapiens, UniProt P51451); assay: Eurofins IC50Profiler radiometric kinase assay, BLK; type: biochemical; conditions: 9 semilog concentrations
From the text: (§1) A proportion of the compounds of the present invention are subjected to kinase profile screening (KinaseProfiler™)) and enzymatic inhibitory activity (IC50Profiler™)) assay by entrusting Eurofins company (http://www.eurofins.com). Besides the kinases in the JAK family, the kinases that have been screened for their activity also include most Group 3F and Group 4 kinases (ITK, BLK, TBK1, VEGFRs, ERBBs, etc.), and blood system related kinases (Zhang J. et al. 2009, Nat. Rev. Cancer., 9: 28-39). The concentration of the test compound for kinase profile screening is 1 μM, and a gradient of 9 semilog concentration gradients are used to determine IC50. Detection is carried out according to standard procedure of Eurofins Company. Briefly, according to the requirements of different kinase reactions, 0.2 μL test compound (50 μM, dissolved in dimethyl sulfoxide (DMSO)) is added to reaction buffer containing specific kinase (the buffer system containing 20 mM MOPS, 1 mM EDTA, 0.01% Brij-35, 5% Glycerol, 0.1% β-mercaptoethanol, 1 mg/mL BSA, or 50 mM TRIS, 0.1 mM EGTA, 0.1 mM Na3VO4, 0.1% β-mercaptoethanol, 1 mg/mL BSA, based on the type of kinase used). Subsequently, a kinase specific substrate at a final concentration of 50 μM (specific substrate used for specific kinase), 10 mM Mg Acetate and isotope-labeled γ-^33P ATP (radio-activity of about 500 cpm/pmol) are sequentially added to a total volume of 10 μL for the reaction system. After incubation at room temperature for 40 min, the reaction is terminated by adding 3% phosphoric acid solution. The mixture is then transferred to a filter-type low temperature spray dryer (P30 filtermat), and washed by 75 mM phosphoric acid solution for 3 times and by methanol once. After drying, radio-activity is detected. For specific procedure, see the standard procedure provided by Eurofins Company: http://www.eurofins.com/media/9724077/kinaseprofiler_assay_protocol_guide_eurofins_v64.pdf).

ITK = ITK (Homo sapiens (Human), UniProt Q08881); assay: Eurofins IC50Profiler radiometric kinase assay, ITK; type: biochemical; conditions: 9 semilog concentrations
Chain of ITK (Q08881 whole entry, species assumed): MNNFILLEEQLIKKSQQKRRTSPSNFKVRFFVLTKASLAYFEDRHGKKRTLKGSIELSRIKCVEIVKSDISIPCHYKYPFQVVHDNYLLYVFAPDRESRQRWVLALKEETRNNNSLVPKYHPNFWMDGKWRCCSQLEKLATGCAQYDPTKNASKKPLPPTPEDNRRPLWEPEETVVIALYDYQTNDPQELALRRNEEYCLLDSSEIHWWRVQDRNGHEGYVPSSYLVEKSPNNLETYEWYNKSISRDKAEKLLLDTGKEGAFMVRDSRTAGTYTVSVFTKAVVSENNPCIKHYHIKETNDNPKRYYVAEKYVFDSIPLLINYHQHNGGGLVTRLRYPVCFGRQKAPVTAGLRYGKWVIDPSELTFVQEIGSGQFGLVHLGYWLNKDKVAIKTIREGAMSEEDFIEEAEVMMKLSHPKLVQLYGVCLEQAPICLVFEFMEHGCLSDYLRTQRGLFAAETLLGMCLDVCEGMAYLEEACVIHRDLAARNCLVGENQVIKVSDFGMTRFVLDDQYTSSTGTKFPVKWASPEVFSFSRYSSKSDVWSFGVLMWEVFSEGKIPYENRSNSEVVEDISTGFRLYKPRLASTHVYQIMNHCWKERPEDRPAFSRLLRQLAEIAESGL
From the text: as §1

JAK3 = JAK3 (Homo sapiens (Human), UniProt P52333); assay: Eurofins IC50Profiler radiometric kinase assay, JAK3; type: biochemical; conditions: 9 semilog concentrations
Chain of JAK3 (P52333 whole entry, species assumed): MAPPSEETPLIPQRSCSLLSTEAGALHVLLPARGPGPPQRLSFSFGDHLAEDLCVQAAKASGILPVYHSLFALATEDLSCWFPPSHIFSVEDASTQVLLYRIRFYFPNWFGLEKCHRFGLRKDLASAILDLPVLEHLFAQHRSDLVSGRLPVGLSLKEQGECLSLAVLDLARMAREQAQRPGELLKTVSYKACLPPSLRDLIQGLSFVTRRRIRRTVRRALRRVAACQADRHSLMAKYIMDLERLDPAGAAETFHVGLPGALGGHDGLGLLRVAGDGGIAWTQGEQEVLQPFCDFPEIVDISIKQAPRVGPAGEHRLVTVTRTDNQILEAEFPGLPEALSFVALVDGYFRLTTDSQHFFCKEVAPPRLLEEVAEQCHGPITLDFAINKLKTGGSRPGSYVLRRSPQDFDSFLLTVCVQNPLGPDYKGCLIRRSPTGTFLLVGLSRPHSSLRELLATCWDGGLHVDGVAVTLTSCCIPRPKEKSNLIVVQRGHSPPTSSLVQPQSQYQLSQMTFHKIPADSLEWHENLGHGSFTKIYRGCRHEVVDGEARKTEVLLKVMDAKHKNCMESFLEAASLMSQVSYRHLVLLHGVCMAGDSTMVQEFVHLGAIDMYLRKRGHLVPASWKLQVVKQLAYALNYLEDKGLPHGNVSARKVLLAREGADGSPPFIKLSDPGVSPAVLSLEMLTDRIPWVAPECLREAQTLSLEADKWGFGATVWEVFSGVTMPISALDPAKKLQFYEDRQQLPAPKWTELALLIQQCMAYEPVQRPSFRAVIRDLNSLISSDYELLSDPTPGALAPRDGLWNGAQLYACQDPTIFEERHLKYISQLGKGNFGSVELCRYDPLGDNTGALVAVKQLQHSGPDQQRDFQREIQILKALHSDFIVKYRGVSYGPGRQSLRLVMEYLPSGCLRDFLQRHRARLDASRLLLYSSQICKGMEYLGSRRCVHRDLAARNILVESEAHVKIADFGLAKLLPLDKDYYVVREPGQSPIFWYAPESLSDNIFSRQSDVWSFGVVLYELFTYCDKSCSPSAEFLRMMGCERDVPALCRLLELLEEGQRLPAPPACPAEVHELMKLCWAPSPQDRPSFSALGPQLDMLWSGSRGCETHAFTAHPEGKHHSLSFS
From the text: as §1

Flt4 = Flt4 (Homo sapiens (Human), UniProt P35916); assay: Eurofins IC50Profiler radiometric kinase assay, Flt4; type: biochemical; conditions: 9 semilog concentrations
Chain of Flt4 (P35916 25-1363, species assumed): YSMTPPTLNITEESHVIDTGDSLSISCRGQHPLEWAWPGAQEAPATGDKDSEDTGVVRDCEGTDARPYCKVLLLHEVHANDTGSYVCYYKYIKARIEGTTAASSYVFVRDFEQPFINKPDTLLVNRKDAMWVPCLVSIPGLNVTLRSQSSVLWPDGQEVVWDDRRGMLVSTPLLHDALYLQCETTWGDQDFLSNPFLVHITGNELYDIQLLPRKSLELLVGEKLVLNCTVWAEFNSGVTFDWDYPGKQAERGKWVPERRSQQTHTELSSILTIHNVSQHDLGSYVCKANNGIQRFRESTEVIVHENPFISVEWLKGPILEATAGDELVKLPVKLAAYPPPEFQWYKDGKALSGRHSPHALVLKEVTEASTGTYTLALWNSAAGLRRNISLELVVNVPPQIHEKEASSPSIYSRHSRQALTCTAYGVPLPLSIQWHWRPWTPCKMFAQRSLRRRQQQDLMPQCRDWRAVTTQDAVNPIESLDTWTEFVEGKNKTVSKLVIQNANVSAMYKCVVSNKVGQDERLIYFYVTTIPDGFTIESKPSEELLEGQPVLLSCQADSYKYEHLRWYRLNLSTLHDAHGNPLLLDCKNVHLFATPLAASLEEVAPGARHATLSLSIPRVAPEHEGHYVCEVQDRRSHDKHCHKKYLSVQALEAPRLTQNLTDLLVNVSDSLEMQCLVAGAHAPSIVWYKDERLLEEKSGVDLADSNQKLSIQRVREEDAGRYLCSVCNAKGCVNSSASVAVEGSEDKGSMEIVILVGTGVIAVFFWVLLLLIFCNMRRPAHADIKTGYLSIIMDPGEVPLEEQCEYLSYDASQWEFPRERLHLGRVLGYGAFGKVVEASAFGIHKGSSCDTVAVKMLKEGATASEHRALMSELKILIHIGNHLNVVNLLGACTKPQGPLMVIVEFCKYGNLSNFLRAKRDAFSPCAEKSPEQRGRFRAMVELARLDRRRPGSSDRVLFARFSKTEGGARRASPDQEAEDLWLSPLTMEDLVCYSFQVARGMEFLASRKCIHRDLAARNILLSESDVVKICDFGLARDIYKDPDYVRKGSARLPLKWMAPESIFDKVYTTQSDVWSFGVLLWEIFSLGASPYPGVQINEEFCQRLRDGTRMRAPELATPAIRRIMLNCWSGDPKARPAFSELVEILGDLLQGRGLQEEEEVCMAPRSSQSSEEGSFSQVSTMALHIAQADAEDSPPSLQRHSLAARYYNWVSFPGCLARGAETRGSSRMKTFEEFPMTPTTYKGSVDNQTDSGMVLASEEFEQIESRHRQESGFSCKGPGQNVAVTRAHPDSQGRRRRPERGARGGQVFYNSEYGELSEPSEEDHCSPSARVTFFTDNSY
From the text: as §1

HUVEC cells = assay: Cell growth activity assay (MTS), HUVEC cell model; type: cell-based; conditions: Homo sapiens, 72 h; for activity at 10 µM: read-out: HUVEC % growth rate @10 μM
From the text: MTS assay is a routine method for cell toxicity detection. The basic principle is based on the capacity of dehydrogenase in the mitochondria of living cells to reduce a novel yellow […] MTS to formazan, so that the amount of living cells is proportional to the amount of formazan product by detecting the absorbance at 490 nm (OD), thereby speculating the amount of living cells according to the OD value, and understanding the capacity of the test compound to inhibit the growth of cells or to kill the cells.
HeLa cell is a human cervical cancer cell line, and belongs to epithelial tumor cell line; HUVEC is a human umbilical vein endothelial cell, and belongs to primary endothelial cell; both types of cells express all subtypes except for JAK3.
The change of JAK kinase activity has no significant influence on other cell types except for the immune cells, and both cell models mentioned above are mainly used to evaluate whether there are any other kinase targets besides JAK kinases or there are nonselective cell toxicities.
In this experiment, a cultured cell model is incubated with the test compounds at different concentrations for a specific duration. The effect of the treatment by the test compound on the growth of cells is detected using MTS assay.
MTS is performed according to routine procedure in a 96-well plate.
The model cells are inoculated into each well of the 96-well plate at an appropriate concentration (about 5000 cells/well). After 24 h, the test compounds are added at different concentration gradients (the highest final concentration is 40 μM). A solvent control (DMSO) and a negative control are also performed at the same time. Each experiment is repeated for 3 times. The cells are detected after cultured for another 72 h.
After all culture medium is aspirated out of the well, 100 μL fresh medium and 20 μL pre-formulated mixture of MTS and PMS (in a ratio of 20:1) are added to each well. After incubation at 37° C. for 2 h, it is then detected by a microplate reader (490 nm).
The cell growth inhibitory rate and GI50 of the test compound are calculated as above.
Based on the above method, cytological evaluation is performed to the compounds described herein (for the detection of CTLL-2 cell, the concentration of the test compound is 300 nM; […]).

CTLL-2 cells = assay: Cell growth activity assay (MTS), CTLL-2 cell model; type: cell-based, mouse; conditions: Mus musculus; for activity at 0.3 µM: CTLL-2, 300 nM, 24 h, read-out: CTLL-2 % growth rate @300 nM; for GI50: CTLL-2, 24 h
In short: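 Mouse IL-2-dependent T-cell line seeded ~20,000 cells/well, compounds added after 24 h at gradient concentrations (top 10 μM; CTLL-2 evaluation at 300 nM), cultured another 24 h. MTS/PMS added, 2 h at 37° C, absorbance 490 nm; inhibition vs DMSO control after negative-control background subtraction, GI50 calculated; triplicate.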

Chain of BLK (P51451 2-505 limits assumed): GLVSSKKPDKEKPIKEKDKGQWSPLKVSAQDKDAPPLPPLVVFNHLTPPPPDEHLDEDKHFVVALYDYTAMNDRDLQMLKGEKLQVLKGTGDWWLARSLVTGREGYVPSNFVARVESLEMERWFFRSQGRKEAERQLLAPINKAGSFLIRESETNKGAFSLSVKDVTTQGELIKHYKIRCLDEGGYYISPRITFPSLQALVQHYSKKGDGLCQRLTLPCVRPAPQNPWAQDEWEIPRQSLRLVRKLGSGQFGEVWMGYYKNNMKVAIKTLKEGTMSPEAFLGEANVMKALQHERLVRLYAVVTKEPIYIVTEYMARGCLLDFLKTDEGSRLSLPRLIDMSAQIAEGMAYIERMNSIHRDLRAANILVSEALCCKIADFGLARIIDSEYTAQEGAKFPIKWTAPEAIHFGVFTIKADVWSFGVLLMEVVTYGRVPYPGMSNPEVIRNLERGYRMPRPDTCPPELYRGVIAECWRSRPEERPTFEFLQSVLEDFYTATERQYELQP

| SMILES | IC50 (BLK) [nM] | IC50 (ITK) [nM] | IC50 (JAK3) [nM] | IC50 (Flt4) [nM] | activity at 10 µM (HUVEC cells) [%] | GI50 (HUVEC cells) [nM] | activity at 0.3 µM (CTLL-2 cells) [%] | GI50 (CTLL-2 cells) [nM] |
| --- | --- | --- | --- | --- | --- | --- | --- | --- |
| C=CC(=O)N(C)c1cc(Nc2ncc(Cl)c(NCCCNC(=O)c3ccc(C#N)cc3)n2)ccc1F [Example 7, N-(3-(5-chloro-2-(4-fluoro-3-(N-methylacrylamido)phenylamino)pyrimidinyl-4-amino)propyl)-4-cyano-benzamide] | 286 | 319 | 11 | 107 | 94 | > 40000 | 10 | 116 |
| C=CC(=O)N(C)c1cc(Nc2ncc(Cl)c(NCCCNC(=O)c3ccc(C(F)(F)F)cc3)n2)ccc1F [Example 22, N-(3-(5-chloro-2-(4-fluoro-3-(N-methylacrylamido)phenylamino)pyrimidinyl-4-amino)propyl)-4-trifluoromethylbenzamide] | 1660 | > 10000 | 21 | > 10000 | 116 | > 40000 | 7 | 249 |
| C=CC(=O)N(C)c1cc(Nc2ncc(Cl)c(NCCCNC(=O)c3ccc(F)cc3)n2)ccc1F [Example 23, N-(3-(5-chloro-2-(4-fluoro-3-(N-methylacrylamido)phenylamino)pyrimidinyl-4-amino)propyl)-4-fluorobenzamide] | 855 | > 10000 | 11 | 42 | 112 | > 40000 | 4 | 140 |
